We go through four molecules from paper PMC6013238, “Development of novel NEMO-binding domain mimetics for inhibiting IKK/NF-κB activation” (PLoS Biology, 2018).

Several values for one entry are separate records, joined by “and”; a condition that tells them apart may be missing. Identical values can stand only once.

Assay [1] has as its system NF-κB DNA binding activity. The assay is described as follows: EMSA of NF-κB DNA binding activity in muscle of mdx mice after a single i.p. dose. Format: in vivo, mouse. As to conditions: for NF-κB DNA binding activity in quadriceps (EMSA): mdx mice, single i.p. 10 mg/kg, 1 h and 2 h post injection. On the procedure: To confirm that the NBD mimetics reduce IKK kinase activity, phosphorylation of IκBα by IKK in response to 10 ng/ml of TNF-α was measured by western blot at 0, 5, and 10 min after stimulation. […] To determine whether the mimetics also reduce NF-κB DNA binding activity, electrophoretic mobility shift assay (EMSA) was conducted both in vitro and in vivo. […] The addition of acetonitrile increased the stability of both ZINC compounds, especially ZINC 5 (Fig 3D).
Fig 3 Two identified small molecules reduce NF-κB DNA binding activity in vivo and in vitro. (A) Levels of p-IκBα with or without treatment in response to TNF-α were determined by western blot analysis. HEK293 cells were pretreated with DMSO, ZINC12909780 (100 μM), and ZINC5 (100 μM) for 30 min followed by the stimulation of 10 ng/ml of TNF-α for 0, 5, and 10 min. Cell lysates were prepared for immunoblot against p-IκBα. GAPDH was used as a loading control. (B) EMSA analysis detecting NF-κB DNA binding activity was performed in C2C12 myoblasts. Cells were pretreated with 200 μM of DMSO, ZINC12909780, and ZINC5 in serum-free media for 1 h. TNF-α was then added to a final concentration of 10 ng/ml and incubated for 15 min. Nuclear extract was obtained for EMSA analysis. (C) EMSA analysis assessing NF-κB DNA binding activity in vivo was performed with quadriceps from mdx mice. […] Quadriceps was harvested at 1 h and 2 h post injection for EMSA analysis. (D) The time-course pharmacokinetics of ZINC5 and ZINC12909780 in FBS media or FBS media containing acetonitrile. Underlying data can be found in S1 Data. EMSA, electrophoretic mobility shift assay; HEK293, human embryonic kidney 293 cells; i.p., intraperitoneal; NF-κB, nuclear factor κB; t1/2, half-life; TNF-α; tumor necrosis factor α. […]
Supplementary file pbio.2004663.s005.tif: S4 Fig Chronic treatment with NBD mimetics improves muscle pathology by inhibiting NF-κB DNA binding activity in mdx mice. (A) Quantification of percentage of centralized myonuclei. […]
On the technique in general: In EMSA bound probe runs differently from free probe, usually more slowly.

A further assay concerns NF-κB target genes. The assay is described as follows: qRT-PCR of NF-κB target genes in LPS-stimulated Raw 264.7 cells. The settings on record: LPS 1 μg/ml 2 h; for Effect on transcription of NF-κB target genes (COX-2, IL-6, IL-1β, TNF-α, IκBα, iNOS): 50 μM. The class given is cell-based, mouse. Background: In qPCR the cycle at which signal appears reflects the starting amount.

The test system of a further assay is mdx mice. The assay can be described thus: Chronic treatment of mdx mice, forelimb grip strength test. The settings on record: Fig 7G, single mice. Format: in vivo, mouse. The text has this: Fig 7 NBD mimetics improve muscular pathology and grip strength in mdx mice. (A) Shown is the treatment regimen with NBD mimetics in mdx mice. (B) Hematoxylin–eosin staining of TA muscle from 7-wk-old, treated or untreated mdx mice. Images were taken at magnification of 20×. Representative images were shown for each treatment group. […] (E) TA muscle from 7-wk-old, treated or untreated mdx mice was stained with laminin by IHC to outline myofibers. Overall images of TA muscle were shown on the left side, and the inset panel images were shown on the right side. (F) Quantitation of minimum Feret diameter in centrally and noncentrally nucleated myofibers. (G) Forelimb force determined by grip strength test. Five-wk-old (2 wk post treatment) and 7-wk-old (4 wk post treatment) mdx mice, treated or untreated, were tested for forelimb grip strength. Five sequential tests were performed, and the force was normalized to body weight. Data were shown as mean +/− SEM. Dosages used are as follows: SR12343 (30 mg/kg), SR12460 (30 mg/kg), and 8K-NBD peptide (10 mg/kg). n = 6–7 each group. *P < 0.05, **P < 0.01. Underlying data can be found in S1 Data. eMyHC, embryonic myosin heavy chain; IHC, immunohistochemistry; NBD, NEMO-binding domain; NEMO, NF-κB essential modulator; Pax7, paired box protein 7; qRT-PCR, quantitative real-time polymerase chain reaction; TA, tibialis anterior. To determine whether the NBD mimetics improved muscle strength, grip strength was measured 2 wk and 4 wk post treatment to assess forelimb strength (Fig 7G). […] Seven-wk-old treated or untreated mdx mice were measured for forelimb grip strength by using a digital grip strength meter paired with a metal grid (Bioseb, Vitrolles, France). Mice were allowed to grip the metal grid tightly, and readings were obtained by gently pulling the tail backward until release. Five sequential measurements were performed, and the average force was calculated.

[2] abbreviates: Fig 4C, IKKi VII 2 μM, 8K-NBD 200 μM, SR compounds 50 μM, relative to no LPS.

For `O=C(CNc1ccc(Cl)cn1)NCCc1cccc(Br)c1` [SR12343], the “NF-κB DNA binding in TA muscle (EMSA)” value in assay [1] (9-wk-old mdx mice, single injection 30 mg/kg i.p., 2 h post injection) is “reduction in NF-κB DNA binding”. Besides, in the assay on NF-κB target genes (setting [2]), the “COX2 mRNA expression (qRT-PCR)” value is 201.141 and 209.385; the “IL6 mRNA expression (qRT-PCR)” value is 204.868 and 211.79; the “IL-1b mRNA expression (qRT-PCR)” value is 270.981 and 273.172; the “TNFa mRNA expression (qRT-PCR)” value was 84.4509 and 85.4634. For the same molecule, in the assay with NF-κB target genes (setting [2]), the “iNOS mRNA expression (qRT-PCR)” value was 6.825 and 6.083; the “ikBa mRNA expression (qRT-PCR)” value was 15.399 and 14.5661. Further, the “Effect on transcription of NF-κB target genes (COX-2, IL-6, IL-1β, TNF-α, IκBα, iNOS)” value in the assay on NF-κB target genes was “significant inhibition on COX-2, IL-6, and iNOS expression”. Also, the “Forelimb grip strength, force normalized to body weight” value in the assay on mdx mice (2 week post treatment) is listed as “significantly improved forelimb strength”. Also, the “Forelimb grip strength, force normalized to body weight” value in the assay with mdx mice (2 week post treatment, listed as SR 12343) is 3.61 and 3.7248 and 3.659 and 4.054. For the same molecule, in the assay on mdx mice (4 week post treatment), the “Forelimb grip strength, force normalized to body weight” value is 4.866 and 4.5019 and 4.825 and 4.175 and 4.644 and 3.675 and 4.427.

`O=C(CNCCc1cc(F)cc(F)c1)Nc1ccc(Cl)cn1` [SR12460]: in the assay on NF-κB target genes (setting [2]), the “COX2 mRNA expression (qRT-PCR)” value is 38.9806 and 69.3201 and 44.3249; the “IL-1b mRNA expression (qRT-PCR)” value turned out to be 108.936; the “iNOS mRNA expression (qRT-PCR)” value was 2.289 and 2.778. Further, the “Effect on transcription of NF-κB target genes (COX-2, IL-6, IL-1β, TNF-α, IκBα, iNOS)” value in the assay on NF-κB target genes is given as “significantly inhibit the transcription of all NF-κB target genes tested”. For the same molecule, the “Forelimb grip strength, force normalized to body weight” value in the assay on mdx mice (2 week post treatment) is 5.738 and 3.226 and 3.35. The “Forelimb grip strength, force normalized to body weight” value with mdx mice (4 week post treatment) was 5.455 and 4.515 and 5.487 and 3.928 and 4.07 and 4.448.

On to `O=C(COC(=O)Cc1ccccc1F)Nc1ccc(Cl)cn1` [ZINC5], for which, in assay [1], the “NF-κB DNA binding activity in quadriceps (EMSA)” value is recorded as “inhibited NF-κB DNA binding activity”.

Take `Nc1ncccc1C(=O)OCC(=O)Nc1ccc(Cl)cc1F` [ZINC12909780]: the “NF-κB DNA binding activity in quadriceps (EMSA)” value in assay [1] is “inhibited NF-κB DNA binding activity”.
